Test results taken from PMC5218480 (PLoS ONE, 2017).

System: MV-4-11 cells
Experiment: Gene expression microarray analysis (Affymetrix PrimeView) and GSEA
Assay type: cell-based, human
Design: RFU PODN (11730768_x_at) / Fold change /veh PODN (11730768_x_at) / RFU LINC00158 (11744669_a_at) / Fold change /veh LINC00158 (11744669_a_at) / RFU DUSP10 (11751237_a_at) / Fold change /veh DUSP10 (11751237_a_at) / RFU ID3 (11757404_x_at) / Fold change /veh ID3 (11757404_x_at) / RFU PLEKHG5 (11737974_s_at) / Fold change /veh PLEKHG5 (11737974_s_at) / RFU LRRC4B (11730491_at) / Fold change /veh LRRC4B (11730491_at) / RFU GIMAP4 (11747438_a_at) / Fold change /veh GIMAP4 (11747438_a_at) / RFU KRT8 (11758183_x_at) / Fold change /veh KRT8 (11758183_x_at) / RFU CNN1 (11734310_a_at) / Fold change /veh CNN1 (11734310_a_at) / RFU VPS37D (11726825_at) / Fold change /veh VPS37D (11726825_at) / RFU C10orf10 (11716522_x_at) / Fold change /veh C10orf10 (11716522_x_at) / RFU KIR2DL2 /// KIR2DL4 /// KIR2DL5A /// KIR2DL5B /// KIR2DS1 /// KIR2DS2 /// KIR2DS3 /// KIR2DS4 /// KIR3DL3 /// KIR3DL3 /// KIR3DS1 (11738374_at) / Fold change /veh KIR2DL2 /// KIR2DL4 /// KIR2DL5A /// KIR2DL5B /// KIR2DS1 /// KIR2DS2 /// KIR2DS3 /// KIR2DS4 /// KIR3DL3 /// KIR3DL3 /// KIR3DS1 (11738374_at) / RFU C1QL1 (11718748_at) / Fold change /veh C1QL1 (11718748_at) / RFU TMPRSS4 (11747572_a_at) / Fold change /veh TMPRSS4 (11747572_a_at) / RFU HAMP (11756126_x_at) / Fold change /veh HAMP (11756126_x_at) / RFU RNFT2 (11725882_a_at) / Fold change /veh RNFT2 (11725882_a_at) / RFU NR4A2 (11747474_a_at) / Fold change /veh NR4A2 (11747474_a_at) / RFU ABCC12 (11746883_a_at) / Fold change /veh ABCC12 (11746883_a_at) / RFU TMEM136 (11760407_x_at) / Fold change /veh TMEM136 (11760407_x_at) / RFU CLDN22 /// WWC2 (11732394_at) / Fold change /veh CLDN22 /// WWC2 (11732394_at) / RFU HLA-DPB1 (11760878_x_at) / Fold change /veh HLA-DPB1 (11760878_x_at) / RFU SPINT1 (11716480_a_at) / Fold change /veh SPINT1 (11716480_a_at) / RFU GAP43 (11754022_s_at) / Fold change /veh GAP43 (11754022_s_at) / RFU A4GNT (11735810_at) / Fold change /veh A4GNT (11735810_at) / RFU PRB3 (11715151_x_at) / Fold change /veh PRB3 (11715151_x_at) / RFU TUBB4B (11761932_at) / Fold change /veh TUBB4B (11761932_at) / RFU CAPN14 (11732068_a_at) / Fold change /veh CAPN14 (11732068_a_at) / RFU TMCC2 (11721928_a_at) / Fold change /veh TMCC2 (11721928_a_at) / RFU IRGQ (11745062_a_at) / Fold change /veh IRGQ (11745062_a_at) / RFU FAM174B (11720279_a_at) / Fold change /veh FAM174B (11720279_a_at) / RFU TMPRSS4 (11748680_a_at) / Fold change /veh TMPRSS4 (11748680_a_at) / RFU FAM212B (11763350_a_at) / Fold change /veh FAM212B (11763350_a_at) / RFU PLEKHG5 (11743358_a_at) / Fold change /veh PLEKHG5 (11743358_a_at) / RFU ZSCAN30 (11745921_a_at) / Fold change /veh ZSCAN30 (11745921_a_at) / RFU CMKLR1 (11741424_a_at) / Fold change /veh CMKLR1 (11741424_a_at) / RFU LOC101060620 /// MAPK8IP1 (11723275_at) / Fold change /veh LOC101060620 /// MAPK8IP1 (11723275_at) / RFU SPTSSB (11747773_x_at) / Fold change /veh SPTSSB (11747773_x_at) / RFU PRSS12 (11739890_at) / Fold change /veh PRSS12 (11739890_at) / RFU BIN1 (11741810_x_at) / Fold change /veh BIN1 (11741810_x_at) / RFU WNT11 (11732464_a_at) / Fold change /veh WNT11 (11732464_a_at) / RFU C10orf10 (11716521_a_at) / Fold change /veh C10orf10 (11716521_a_at) / RFU C5orf56 (11738089_at) / Fold change /veh C5orf56 (11738089_at) / RFU CYB561 (11721691_x_at) / Fold change /veh CYB561 (11721691_x_at) / RFU ANKRD19P (11752326_a_at) / Fold change /veh ANKRD19P (11752326_a_at) / RFU OR2T12 /// OR2T33 /// OR2T8 (11738714_s_at) / Fold change /veh OR2T12 /// OR2T33 /// OR2T8 (11738714_s_at) / RFU VCAN (11748164_a_at) / Fold change /veh VCAN (11748164_a_at) / RFU JSRP1 (11732532_at) / Fold change /veh JSRP1 (11732532_at) / RFU KRTAP10-11 (11738290_x_at) / Fold change /veh KRTAP10-11 (11738290_x_at) / RFU MYO3A (11730013_a_at) / Fold change /veh MYO3A (11730013_a_at) / RFU EBF3 (11725865_a_at) / Fold change /veh EBF3 (11725865_a_at) / RFU CAMK2N1 (11719241_x_at) / Fold change /veh CAMK2N1 (11719241_x_at) / RFU C5orf56 (11738088_a_at) / Fold change /veh C5orf56 (11738088_a_at) / RFU OLFML3 (11715873_a_at) / Fold change /veh OLFML3 (11715873_a_at) / RFU LOC100653217 /// NTM (11731650_a_at) / Fold change /veh LOC100653217 /// NTM (11731650_a_at) / RFU MAPK11 (11762145_a_at) / Fold change /veh MAPK11 (11762145_a_at) / RFU FIZ1 (11724087_x_at) / Fold change /veh FIZ1 (11724087_x_at) / RFU OASL (11726364_x_at) / Fold change /veh OASL (11726364_x_at) / RFU SOX15 (11748057_x_at) / Fold change /veh SOX15 (11748057_x_at) / RFU CD79A (11719716_a_at) / Fold change /veh CD79A (11719716_a_at) / RFU HIST1H1D (11736915_at) / Fold change /veh HIST1H1D (11736915_at) / RFU CASKIN2 (11723855_a_at) / Fold change /veh CASKIN2 (11723855_a_at) / RFU LOC730098 (11760151_x_at) / Fold change /veh LOC730098 (11760151_x_at) / RFU OR4N2 (11742367_at) / Fold change /veh OR4N2 (11742367_at) / RFU PRRT2 (11749266_a_at) / Fold change /veh PRRT2 (11749266_a_at) / RFU SNX32 (11753110_a_at) / Fold change /veh SNX32 (11753110_a_at) / RFU CDHR5 (11726645_a_at) / Fold change /veh CDHR5 (11726645_a_at) / RFU RCAN1 (11760418_a_at) / Fold change /veh RCAN1 (11760418_a_at) / RFU FAM167A (11723789_a_at) / Fold change /veh FAM167A (11723789_a_at) / RFU FAM26E (11764081_at) / Fold change /veh FAM26E (11764081_at) / RFU ISYNA1 (11749810_s_at) / Fold change /veh ISYNA1 (11749810_s_at) / RFU ACY1 (11761880_at) / Fold change /veh ACY1 (11761880_at) / RFU 11764098_at / Fold change /veh 11764098_at / RFU SAMD14 (11745864_x_at) / Fold change /veh SAMD14 (11745864_x_at) / RFU NPB (11741838_a_at) / Fold change /veh NPB (11741838_a_at) / RFU TMPRSS6 (11731388_a_at) / Fold change /veh TMPRSS6 (11731388_a_at) / RFU KRTAP10-2 (11738614_at) / Fold change /veh KRTAP10-2 (11738614_at) / RFU ARHGAP8 /// PRR5-ARHGAP8 (11727945_x_at) / Fold change /veh ARHGAP8 /// PRR5-ARHGAP8 (11727945_x_at) / RFU KRTAP5-7 /// NADSYN1 (11734609_at) / Fold change /veh KRTAP5-7 /// NADSYN1 (11734609_at) / RFU RASL12 (11751679_a_at) / Fold change /veh RASL12 (11751679_a_at) / RFU CDKN2B (11736163_a_at) / Fold change /veh CDKN2B (11736163_a_at) / RFU PRF1 (11729649_at) / Fold change /veh PRF1 (11729649_at) / RFU, ZNF638 /// ZNF638-IT1 / Fold change vs veh, ZNF638 /// ZNF638-IT1 / RFU, PANK3 / Fold change vs veh, PANK3 / RFU, SH3YL1 / Fold change vs veh, SH3YL1 / RFU, ZEB2 / Fold change vs veh, ZEB2 / RFU, NRIP1 / Fold change vs veh, NRIP1 / RFU, PTTG1IP / Fold change vs veh, PTTG1IP / RFU, CAPN2 / Fold change vs veh, CAPN2 / RFU, MED14 / Fold change vs veh, MED14 / RFU, SNORA58 / Fold change vs veh, SNORA58 / RFU, C1orf63 / Fold change vs veh, C1orf63 / RFU, LRRFIP1 / Fold change vs veh, LRRFIP1 / RFU, NDUFAF7 / Fold change vs veh, NDUFAF7 / RFU, SLC12A2 / Fold change vs veh, SLC12A2 / RFU, IBTK / Fold change vs veh, IBTK / RFU, ESF1 / Fold change vs veh, ESF1 / Fold change vs veh, TMEM50B / RFU, TAOK1 / Fold change vs veh, TAOK1 / RFU, ACBD3 / Fold change vs veh, ACBD3 / RFU, TMA16 / Fold change vs veh, TMA16 / RFU, RWDD3 / Fold change vs veh, RWDD3 / RFU, BCAT1 / Fold change vs veh, BCAT1 / RFU, EDEM3 / Fold change vs veh, EDEM3 / RFU, TMEM33 / Fold change vs veh, TMEM33 / RFU, WDR75 / Fold change vs veh, WDR75 / RFU, AHCTF1 / Fold change vs veh, AHCTF1 / RFU, TFRC / Fold change vs veh, TFRC / RFU, ZDHHC17 / Fold change vs veh, ZDHHC17 / RFU, NOM1 / Fold change vs veh, NOM1 / RFU, ARL8B / Fold change vs veh, ARL8B / RFU, ZBTB11 / Fold change vs veh, ZBTB11 / RFU, TAMM41 / Fold change vs veh, TAMM41 / RFU, KIAA1704 /// LOC100996395 / Fold change vs veh, KIAA1704 /// LOC100996395 / RFU, ING1 / Fold change vs veh, ING1 / RFU, TRMT61B / Fold change vs veh, TRMT61B / RFU, FUBP3 / Fold change vs veh, FUBP3 / RFU, TP53 / Fold change vs veh, TP53 / RFU, TNKS2 / Fold change vs veh, TNKS2 / RFU, ZFP14 / Fold change vs veh, ZFP14 / RFU, ACTR2 / Fold change vs veh, ACTR2 / RFU, PPP3R1 / Fold change vs veh, PPP3R1 / RFU, PIK3R1 / Fold change vs veh, PIK3R1 / RFU, HNRNPA1 / Fold change vs veh, HNRNPA1 / RFU, RNF170 / Fold change vs veh, RNF170 / RFU, ZNF28 / Fold change vs veh, ZNF28 / RFU, RNGTT / Fold change vs veh, RNGTT / RFU, OGT / Fold change vs veh, OGT / RFU, BRD1 / Fold change vs veh, BRD1 / RFU, MARS / Fold change vs veh, MARS / RFU, ZNF655 / Fold change vs veh, ZNF655 / RFU, FAHD1 / Fold change vs veh, FAHD1 / RFU, BDP1 / Fold change vs veh, BDP1 / RFU, LRRCC1 / Fold change vs veh, LRRCC1 / RFU, ARID1A / Fold change vs veh, ARID1A / RFU, ZNF146 / Fold change vs veh, ZNF146 / RFU, ZNF330 / Fold change vs veh, ZNF330 / RFU, GPN3 / Fold change vs veh, GPN3 / RFU, C9orf123 / Fold change vs veh, C9orf123 / RFU, N4BP2L2 / Fold change vs veh, N4BP2L2 / RFU, ARFIP1 / Fold change vs veh, ARFIP1 / RFU, FAM179B / Fold change vs veh, FAM179B / RFU, BCL10 / Fold change vs veh, BCL10 / RFU, UHRF1BP1L / Fold change vs veh, UHRF1BP1L / RFU, BET1 / Fold change vs veh, BET1 / RFU, CNOT2 / Fold change vs veh, CNOT2 / RFU, ZNF268 / Fold change vs veh, ZNF268 / Fold change vs veh, ZNF507 / RFU, DGCR2 / Fold change vs veh, DGCR2 / RFU, WDSUB1 / Fold change vs veh, WDSUB1 / Fold change vs veh, HSP90B1 /// MIR3652 / RFU, ADSS / Fold change vs veh, ADSS / RFU, GK / Fold change vs veh, GK / RFU, ZNF148 / Fold change vs veh, ZNF148 / RFU, TAF9 / Fold change vs veh, TAF9 / RFU, SLC1A5 / Fold change vs veh, SLC1A5 / RFU, SLMO2 / Fold change vs veh, SLMO2 / RFU, ABCC4 / Fold change vs veh, ABCC4 / RFU, LOC101060439 /// RAP1B / Fold change vs veh, LOC101060439 /// RAP1B / RFU, RFX7 / Fold change vs veh, RFX7 / RFU, GTPBP10 / Fold change vs veh, GTPBP10 / RFU, CNEP1R1 / Fold change vs veh, CNEP1R1 / RFU, BIVM-ERCC5 /// ERCC5 / Fold change vs veh, BIVM-ERCC5 /// ERCC5 / RFU, ILF3 / Fold change vs veh, ILF3 / RFU 11762660_at / Fold change /veh 11762660_at / RFU VCAN (11757783_s_at) / Fold change /veh VCAN (11757783_s_at) / RFU DDX43 (11728927_at) / Fold change /veh DDX43 (11728927_at) / RFU KRT8 (11758188_x_at) / Fold change /veh KRT8 (11758188_x_at) / RFU NKD1 (11759106_at) / Fold change /veh NKD1 (11759106_at) / RFU SRD5A1 (11742802_a_at) / Fold change /veh SRD5A1 (11742802_a_at) / RFU TPSAB1 /// TPSB2 (11721975_s_at) / Fold change /veh TPSAB1 /// TPSB2 (11721975_s_at) / RFU GSTM3 (11746129_a_at) / Fold change /veh GSTM3 (11746129_a_at) / RFU IL23R (11737362_x_at) / Fold change /veh IL23R (11737362_x_at) / RFU TMEM51 (11727254_a_at) / Fold change /veh TMEM51 (11727254_a_at) / RFU PIWIL2 (11732686_x_at) / Fold change /veh PIWIL2 (11732686_x_at) / RFU ORM1 (11744905_x_at) / Fold change /veh ORM1 (11744905_x_at) / RFU CCDC152 (11743942_at) / Fold change /veh CCDC152 (11743942_at) / RFU ECM1 (11717891_a_at) / Fold change /veh ECM1 (11717891_a_at) / RFU IL23R (11748794_a_at) / Fold change /veh IL23R (11748794_a_at) / RFU TNFAIP8L3 (11732012_x_at) / Fold change /veh TNFAIP8L3 (11732012_x_at) / RFU MBOAT4 (11741988_at) / Fold change /veh MBOAT4 (11741988_at) / RFU 11764193_at / Fold change /veh 11764193_at / RFU TMEM53 (11763286_at) / Fold change /veh TMEM53 (11763286_at) / RFU MAGEB2 (11727129_at) / Fold change /veh MAGEB2 (11727129_at) / RFU TMEM200A (11744735_a_at) / Fold change /veh TMEM200A (11744735_a_at) / RFU CCDC152 (11751479_a_at) / Fold change /veh CCDC152 (11751479_a_at) / RFU FAM211A (11726209_a_at) / Fold change /veh FAM211A (11726209_a_at) / RFU RGS16 (11746705_a_at) / Fold change /veh RGS16 (11746705_a_at) / RFU VCAN (11755009_s_at) / Fold change /veh VCAN (11755009_s_at) / RFU RHOB (11743442_s_at) / Fold change /veh RHOB (11743442_s_at) / RFU RGS16 (11720943_a_at) / Fold change /veh RGS16 (11720943_a_at) / RFU RGS16 (11720944_at) / Fold change /veh RGS16 (11720944_at) / RFU, VPS4B / Fold change vs veh, VPS4B / RFU, CREB1 / Fold change vs veh, CREB1 / RFU, DNAJC13 / Fold change vs veh, DNAJC13 / RFU, GNAQ / Fold change vs veh, GNAQ / RFU, CDK5R1 / Fold change vs veh, CDK5R1 / RFU, ZRANB3 / Fold change vs veh, ZRANB3 / RFU, CUL4A / Fold change vs veh, CUL4A / RFU, CCNY / Fold change vs veh, CCNY / RFU, UFL1 / Fold change vs veh, UFL1 / RFU, COG3 / Fold change vs veh, COG3 / RFU, DIAPH2 / Fold change vs veh, DIAPH2 / RFU, SKA2 / Fold change vs veh, SKA2 / RFU, AFF3 / Fold change vs veh, AFF3 / RFU, LMF1 / Fold change vs veh, LMF1 / RFU, IPO11 / Fold change vs veh, IPO11 / RFU, DFFB / Fold change vs veh, DFFB / RFU, FOXP1 / Fold change vs veh, FOXP1 / RFU, CARD8 / Fold change vs veh, CARD8 / RFU, STRN3 / Fold change vs veh, STRN3 / RFU, ADK / Fold change vs veh, ADK / RFU, RASSF2 / Fold change vs veh, RASSF2 / RFU, WIPF1 / Fold change vs veh, WIPF1 / RFU, LARP1B / Fold change vs veh, LARP1B / RFU, RASA1 / Fold change vs veh, RASA1 / RFU, RB1 / Fold change vs veh, RB1 / RFU, PPFIA1 / Fold change vs veh, PPFIA1 / RFU, MAT2A / Fold change vs veh, MAT2A / RFU, CCT5 / Fold change vs veh, CCT5 / RFU, WDR92 / Fold change vs veh, WDR92 / RFU, CUX1 / Fold change vs veh, CUX1 / RFU, TTC7A / Fold change vs veh, TTC7A / RFU, TMEM135 / Fold change vs veh, TMEM135 / RFU, DEPTOR / Fold change vs veh, DEPTOR / RFU, CPM / Fold change vs veh, CPM / RFU, DNAJB6 / Fold change vs veh, DNAJB6 / RFU, CACNA2D3 / Fold change vs veh, CACNA2D3 / RFU, DTX4 / Fold change vs veh, DTX4 / RFU, TFCP2 / Fold change vs veh, TFCP2 / RFU, GMCL1 /// GMCL1P1 / Fold change vs veh, GMCL1 /// GMCL1P1 / RFU, AEBP2 / Fold change vs veh, AEBP2 / RFU, SNHG1 /// SNORD22 /// SNORD25 /// SNORD26 /// SNORD27 /// SNORD28 /// SNORD29 /// SNORD31 / Fold change vs veh, SNHG1 /// SNORD22 /// SNORD25 /// SNORD26 /// SNORD27 /// SNORD28 /// SNORD29 /// SNORD31 / Fold change (Aza/veh), C12orf56 (ProbeSet 11735607_a_at) / Fold change (ACY-1035/veh), C12orf56 (ProbeSet 11735607_a_at) / Fold change (Aza/veh), FGFR1OP (ProbeSet 11751329_s_at) / Fold change (ACY-1035/veh), FGFR1OP (ProbeSet 11751329_s_at) / Fold change (Aza/veh), VPS36 (ProbeSet 11739960_a_at) / Fold change (ACY-1035/veh), VPS36 (ProbeSet 11739960_a_at) / RFU SYPL1 (11715823_x_at) / Fold change /veh SYPL1 (11715823_x_at) / RFU IGFBP7 (11715501_s_at) / Fold change /veh IGFBP7 (11715501_s_at) / RFU REEP3 (11722064_at) / Fold change /veh REEP3 (11722064_at) / RFU IGLL1 (11728026_x_at) / Fold change /veh IGLL1 (11728026_x_at): dose or concentration left out as unconfirmed
Details: MV-4-11 cells, 48 hours

Structure (SMILES): Nc1ncn([C@@H]2O[C@H](CO)[C@@H](O)[C@H]2O)c(=O)n1 [azacitidine]
- RFU LOC730098 (11760151_x_at): 36.57 RFU
